Among the test systems are 786-0 renal; EKVX NSCLC; HCC-2998 colon; HL-60(TB) leukemia; HOP-92 NSCLC; IGROV1 ovarian; MDA-MB-231 breast; OVCAR-8 ovarian; SF-268 CNS; SR leukemia.
Common to all, as to test: inhibition of tumour cell growth, NCI panel, 48 h

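Cultured in 96-well plates, cells were exposed to test compound for 48 hours across five concentrations. Abbreviation: GI50, concentration required for 50% inhibition of growth. At the TGI there is no net growth.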

On to `CCOC(=O)c1c2c(n3ccc(NC(=O)CCN4CCCCC4)cc13)C(=O)c1ncccc1C2=O`, for which the GI50 was 124 nM in the experiment on 786-0 renal; 3030 nM in the experiment on EKVX NSCLC; 1530 nM with HCC-2998 colon; 1460 nM with HL-60(TB) leukemia; 9630 nM with HOP-92 NSCLC; 348 nM with IGROV1 ovarian. Further, the GI50 in the experiment with MDA-MB-231 breast is 1790 nM; in the experiment on OVCAR-8 ovarian, 1280 nM; in the experiment with SF-268 CNS, 50.3 nM; with SR leukemia, < 10 nM. Further, the TGI worked out at 2320 nM in the experiment with 786-0 renal; 8470 nM in the experiment with EKVX NSCLC; 3240 nM with HCC-2998 colon; 3460 nM in the experiment on HL-60(TB) leukemia; 24600 nM with HOP-92 NSCLC; 2540 nM in the experiment on IGROV1 ovarian. In addition, the TGI with MDA-MB-231 breast was determined as 3770 nM; in the experiment on OVCAR-8 ovarian, 3710 nM; in the experiment with SF-268 CNS, 2250 nM; in the experiment on SR leukemia, 1200 nM.

For the compound `O=C(c1ccc2ccccc2c1)c1c(C(F)(F)F)n([O-])c2cc(C(F)(F)F)ccc2[n+]1=O`, the GI50 with 786-0 renal was 1620 nM; in the experiment with EKVX NSCLC, 1570 nM; with HCC-2998 colon it was 1820 nM; with HL-60(TB) leukemia it was 1540 nM; with HOP-92 NSCLC, 1390 nM; in the experiment with IGROV1 ovarian, 1710 nM. Also, the GI50 was 1700 nM in the experiment with MDA-MB-231 breast, 2020 nM in the experiment with OVCAR-8 ovarian, 1560 nM in the experiment with SF-268 CNS and 860 nM with SR leukemia. Besides, the TGI worked out at 3150 nM with 786-0 renal; 3430 nM in the experiment with EKVX NSCLC; 3370 nM with HCC-2998 colon; 3590 nM with HL-60(TB) leukemia; 2790 nM in the experiment with HOP-92 NSCLC; 3360 nM in the experiment with IGROV1 ovarian. Besides, the TGI with MDA-MB-231 breast is 3250 nM; with OVCAR-8 ovarian, 5200 nM; with SF-268 CNS, 3050 nM; with SR leukemia, 2640 nM.

The values above are taken from PubChem BioAssay (NCI).
